Experimental findings from ChEMBL document CHEMBL4616697, “Discovery of Adamantane Carboxamides as Ebola Virus Cell Entry and Glycoprotein Inhibitors” (ACS Med Chem Lett, 2020) are described below.

The source made the active and inactive calls. The calls are words filed in the database; no cut-off is given here.

Data set [1] concerns Vero. The data set can be described thus: Inhibition of glycoprotein in pseudotyped Vesicular stomatitis virus infected in African green monkey Vero cells assessed as reduction in virus entry at 5 uM incubated for 24 hrs by luciferase reporter gene assay. In kind it is cell-based. (In general: A reporter such as luciferase makes a cellular process visible.)
For data set [2], the system named is Vero. The data set can be described thus: Inhibition of glycoprotein in VSV pseudotyped Ebolavirus infected in African green monkey Vero cells assessed as reduction in virus entry at 5 uM incubated for 24 hrs by luciferase reporter gene assay relative to control. In kind it is cell-based.
Data set [3] in a line: Inhibition of glycoprotein in VSV pseudotyped Ebolavirus infected in African green monkey Vero cells assessed as reduction in virus entry incubated for 24 hrs by luciferase reporter gene assay. It counts as cell-based.
Data set [4] can be described thus: Kinetic aqueous solubility of compound in PBS at pH 6.4 to 7.5 measured after 2 hrs by spectrophotometry analysis. Particulars: read-out: Kinetic_solubility. It counts as physicochemical.
For a further data set, the system named is Ebolavirus. The data set is described as follows: Antiviral activity against wild type Ebolavirus infected in African green monkey Vero cells assessed as reduction in plaque forming units incubated for 10 days by crystal violet staining based assay. In kind it is functional, organism-based. The note with it: Orthoebolavirus, 240 h.
A short description of data set [5]: Metabolic stability in dog liver microsomes assessed as parent compound remaining at 1 uM pretreated for 30 mins followed by NADPH addition and measured after 60 mins by LC-MS/MS analysis. In kind it is ADME, Canis lupus familiaris, Microsome. The note with it: read-out: Stability. A general note: Microsomes from liver hold many membrane-bound enzymes, among them those of drug oxidation.

Data set [6] can be described thus: Metabolic stability in rat liver microsomes assessed as parent compound remaining at 1 uM pretreated for 30 mins followed by NADPH addition and measured after 60 mins by LC-MS/MS analysis. It counts as ADME, Microsome. Particulars: read-out: Stability.
The nature of data set [7]: Metabolic stability in guinea pig liver microsomes assessed as parent compound remaining at 1 uM pretreated for 30 mins followed by NADPH addition and measured after 60 mins by LC-MS/MS analysis. In kind it is ADME, Cavia porcellus, Microsome. Particulars: read-out: Stability.
Data set [8] can be described thus: Cytotoxicity against African green monkey Vero E6 cells assessed as reduction in cell viability incubated for 10 days by neutral red dye based spectrophotometry analysis. The arrangement: species or system Vero C1008. Particulars: chlorocebus sabaeus.
Data set [9] is described as follows: Metabolic stability in human liver microsomes assessed as parent compound remaining at 1 uM pretreated for 30 mins followed by NADPH addition and measured after 60 mins by LC-MS/MS analysis. In kind it is ADME, Microsome. Particulars: microsomes, 1 h, 1 µM.
A short description of data set [10]: Metabolic stability in Cynomolgus monkey liver microsomes assessed as parent compound remaining at 1 uM pretreated for 30 mins followed by NADPH addition and measured after 60 mins by LC-MS/MS analysis. In kind it is ADME, Macaca fascicularis, Microsome. The note with it: read-out: Stability.
A short description of data set [11]: Selectivity index, ratio of CC50 for African green monkey Vero E6 cells assessed as reduction in cell viability incubated for 10 days by neutral red dye based spectrophotometry analysis to EC50 for wild type Ebolavirus infected in African green monkey Vero cells assessed as reduction in plaque forming units incubated for 10 days by crystal violet staining based assay. In kind it is toxicity, Vero C1008. The note with it: read-out: Ratio CC50/EC50.

The nature of data set [12]: Aqueous solubility of compound in PBS at pH 7.4 measured after 2 hrs by spectrophotometry analysis. It counts as physicochemical.
Data set [13] can be described thus: Metabolic stability in mouse liver microsomes assessed as parent compound remaining at 1 uM pretreated for 30 mins followed by NADPH addition and measured after 60 mins by LC-MS/MS analysis. In kind it is ADME, Microsome. The note with it: read-out: Stability.

Broadly, the inhibition is the relative decrease from the control value, in per cent. For orientation: EC50 means the concentration needed to bring the measured effect to its halfway point. Take `O=C(NC1CCN(Cc2ccccc2)CC1)C12CC3CC(CC(C3)C1)C2`: in the data set on Vero [1], the inhibition result is “inactive”. Moreover, the inhibition in the data set with Vero [2] was greater than 50%. Besides, the EC50 in data set [3] (Orthoebolavirus, Vero, 24 h) turned out to be 3900 nM. Also, the solubility kinetic at 2 h in data set [4] is greater than 100 µM.
As usually defined, the CC50 is the concentration giving 50% cytotoxicity. The solubility is the concentration that dissolves in the medium under given conditions. Take `CCC12CC3CC(C(=O)N[C@H]4CC[C@H](N)CC4)(C1)CC(c1ccccc1)(C3)C2` (stereo in doubt; 42): the EC50 in data set [3] (vero) was 12 nM; with Ebolavirus it was 140 nM. Besides, the remaining at 1 h, 1 µM amounted to 77% in data set [5]; 46% in data set [6]; 36% in data set [7]; 60% in [10]; 60% in [13]. In addition, in [8], the CC50 at 240 h is 31000 nM. In addition, the Stability in [9] was 65%. For the same molecule, the selectivity ratio at 240 h in data set [11] stood at 221. The molecule further returned a solubility at 2 h in data set [12] greater than 20 mg/mL.
